Measurements reported in US7674464B2, “Intracellular interleukin-1 receptor antagonists” (The University of Tennessee Research Foundation, priority 2004, dated 2010).
pKd: −log10 of the molar value. Read-outs that look alike come from different tables or passages of the source.

Columns and labels:
D10.G4.1 T cells = experiment: lymphocyte mitogenesis assay: IL-1α-stimulated proliferation of D10.G4.1 T cells; format: cell-based, murine; settings: peptides added 1 hour before IL-1α (10 ng/ml)
Procedure: An hour prior to the addition of hrIL-1α, the IL-1ra peptides were added to cultures of murine T cell line, D10.G4.1 and ^3H thymidine incorporation was quantitated.
Since sIL-1ra blocks IL-1 stimulation of T cells, the abilities of the IL-1ra peptides of Table 5 to inhibit mitogenesis of murine D10.G4.1 cells in response to IL-1α were assessed by performing lymphocyte mitogenesis assay. Briefly, different concentrations of IL-1ra peptides were added to culture 1 hour prior to addition of IL-1α (10 ng/ml). The results are expressed as mean cpm of quadruplicate determinations corrected for background. The standard error of the mean for each sample tested was 10% or less. None of the peptides disclosed in Table 5 inhibited IL-1α stimulation of proliferation of D10.G4.1 T cells (FIG. 20). Further, the uptake of ^125I IL-1ra peptide with SEQ ID NO: 13 by dermal fibroblasts was investigated. Briefly, the SEQ ID NO: 13 peptide (25 μg in 125 μl 0.125 sodium borate buffer pH 8.5) was labeled with ^125I-Bolton Hunter Reagent (New England Nuclear, Boston, Mass.) according to manufacturer's instructions. The labeled IL-1ra was separated from the free ^125I by passage over a Bio-Gel P-2 (BioRad, Richmond, Calif.) 1 ml column equilibrated and eluted with phosphate buffered saline containing 0.1% gelatin. […]

collagenase (MMP-1) [1] = experiment: IL-1β-induced collagenase (MMP-1) production by dermal fibroblasts, ELISA; format: cell-based, human
Procedure: Confluent fibroblast monolayer cultures were treated for 2 hr with IL-1ra peptides and cultured for 48 h with hrIL-1β. Collagenase protein was measured in culture supernatants by ELISA.
(§1) Furthermore, the effect of the IL-1ra peptides on the stimulation of MMP-1 and TIMP expression was examined. Briefly, fibroblasts were seeded in wells of Flacon 3008 multiwell plates (5×10^4 cells/500 μl Maintenance Medium). After 72 h culture, the medium was removed from each well and replaced with Maintenance Medium (450 μl) containing 5% FCS and 25 μl of IL-1ra peptides or hrsIL-1ra peptide being tested. Two hrs later 25 μl IL-1β (100 pg/ml) was added to appropriate wells. Plates were incubated for 48 h, at which time medium was collected from each well. Levels of TIMP and collagenase produced by fibroblasts during culture were measured by specific ELISA techniques as previously described (Postlethwaite et al., 1988).

ICAM-1 = experiment: IL-1β-induced ICAM-1 expression on human dermal fibroblasts; format: cell-based
Procedure: Confluent fibroblast monolayers were cultured for […] with IL-1ra peptides and then for 24 h with IL-1β. ICAM expression on fibroblast monolayers was then quantitated.
Further, since IL-1 upregulates ICAM-1 expression on a variety of cells including fibroblasts, the ability of the peptides disclosed in Table 5 to inhibit IL-1β induced ICAM-1 expression on human dermal fibroblasts was examined. Briefly, fibroblasts were seeded in wells of flat bottom 96 well tissue culture plates (NUNC, Roskilde, Denmark) (1×10^4 cells […] Maintenance Medium). After 72 h, the culture medium was removed from each well and replaced with 450 μl Maintenance Medium and 25 μl of IL-1ra peptides or hrsIL-1ra (100 ng/ml). After incubation at 37° C. for 2 h in 5% CO2 humidified atmosphere, 25 μl hrIL-1β (100 pg/mL final concentration) was added to wells containing IL-1ra peptides or hrsIL-1ra. Wells with 50 μl PBS served as a negative control. PBS 25 μl+[…] IL-1β (100 pg/ml final concentration) was a positive control. Plates were incubated an additional 24 h, after which medium was removed from each well and the cells were fixed with 100 μl of 3.8% formaldehyde in PBS for 5-7 minutes at room temperature. The cells were rinsed twice with culture medium, and 100 μl of monoclonal mouse anti-ICAM-1 antibody (AMAC, Inc., Westbrook, Me.; diluted 0.2 mg original stock diluted 1:800 in culture medium) was applied to designated wells. The plate was then incubated at 4° C. overnight.
After washing the plate thrice with 300 μl of 0.1% BSA-PBS, 200 μl of secondary antibody, goat anti-mouse IgG antibody-conjugated to horseradish peroxidase (Pierce, Rockford, Ill.) diluted 1:4000 in 1% BSA-PBS, was added to each well and the plate was incubated at room temperature for 2 h. After a final wash with 0.1% BSA-PBS, 100 μl of peroxidase substrate solution (Pierce) containing 2,2′-azino-di[3-ethylbenzthiazoline sulfonate] (Kirkegaard & Perry Laboratories, Inc., Gaithersburg, Md.) was added to each well. This was followed 30-40 minutes later by reading of the optical density (OD) at 405 nm by a Microplate Autoreader (Bio-Tek Instruments, Inc., Winooski, Vt.). The color solution was discarded and the plate was then washed twice with PBS. Finally, the cells were digested with 30 μl of 0.6 M NaOH overnight, and the amount of protein in each well was determined using BCA assay reagents (Pierce). ICAM-1 expression was presented as OD/mg protein. […] The hrsIL-1ra (100 ng/mL) inhibited IL-1β-induced ICAM-1 expression to 6 O.D. units/mg of cellular protein.

PGE2 = experiment: IL-1β-induced fibroblast PGE2 synthesis, RIA; format: cell-based, human
Procedure: Confluent fibroblast monolayer cultures were preincubated with IL-1ra peptides for 2 h and then with hrIL-1β for 24 h. PGE2 was quantitated by RIA.
Additionally, since IL-1β stimulates PGE2 synthesis by fibroblasts, the effect of peptides disclosed in Table 5 on the PGE2 production by fibroblasts was examined. Briefly, Maintenance Medium in multi-well plates comprising the fibroblasts that were grown to confluency for 3 days was changed to Maintenance Medium containing 2.5% FCS (450 μl/well). This was followed by addition of IL-1ra peptides or hrsIL-1ra (25 μl aliquots) to culture wells 2 hrs prior to addition of hrIL-1β (100 pg/ml). After an additional 24 h incubation, PGE2 was measured in these culture supernatants. PGE2 was extracted from fibroblast culture supernatants and measured by a previously described radioimmunoassay technique (Ballou et al., 1990; Postlethwaite et al., 1989). It was observed that IL-1ra peptide with SEQ ID NO: 15 inhibited IL-1-induced fibroblast synthesis of PGE2 (FIG. 23). Recombinant IL-1ra (100 ng/ml) inhibited IL-1-induced PGE2 production to a level of 150 pg/ml.

TIMP-1 = experiment: IL-1β-stimulated TIMP-1 production by fibroblasts, ELISA; format: cell-based, human
Procedure: TIMP-1 was measured in the same fibroblast culture supernatants as in FIG. 21.
as §1

type I IL-1R [2] = target: T1, type I IL-1R (Mus musculus, UniProt P13504); experiment: [125I] IL-1beta competitive binding to type I IL-1 receptors on EL4 6.1 cells; set-up: IL-1beta from type I IL-1Rs on the EL46.1 cells; endogenous in cells; host or cells: EL4 6.1 (murine T cell line); species or system murine
T1 sequence (P13504 20-576): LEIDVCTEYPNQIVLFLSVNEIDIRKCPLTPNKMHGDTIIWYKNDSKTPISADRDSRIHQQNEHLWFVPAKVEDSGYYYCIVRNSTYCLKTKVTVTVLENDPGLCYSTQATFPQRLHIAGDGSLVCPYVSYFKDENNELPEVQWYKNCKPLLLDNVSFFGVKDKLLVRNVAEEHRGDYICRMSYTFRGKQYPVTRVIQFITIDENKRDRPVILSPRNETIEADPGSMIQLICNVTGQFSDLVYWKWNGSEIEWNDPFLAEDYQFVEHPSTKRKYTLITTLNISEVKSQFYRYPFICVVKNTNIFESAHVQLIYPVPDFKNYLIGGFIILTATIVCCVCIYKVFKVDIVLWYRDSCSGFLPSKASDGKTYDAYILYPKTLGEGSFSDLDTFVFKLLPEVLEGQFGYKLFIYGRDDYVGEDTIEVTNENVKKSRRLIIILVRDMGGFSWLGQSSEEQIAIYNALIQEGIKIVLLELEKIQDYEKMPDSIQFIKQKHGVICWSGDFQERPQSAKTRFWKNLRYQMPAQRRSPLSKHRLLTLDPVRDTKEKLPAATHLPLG
Procedure: IL-1 beta for binding to type I IL-1 receptors on murine cells. EL46.1 cells were incubated at 4° C. in presence of the sodium azide for 2 hr with and without each of the IL-1ra peptides or with soluble human recombinant interleukin 1ra (shrIL-1ra) as a control. Cells were then incubated with [^125I]hrIL-1, transferred to microfuge tubes containing phthalolate oil, centrifuged and free and bound radioactivity determined. Non-specific binding was determined in the presence of 100× excess concentration of cold hrIL-1 beta.
None of the peptides were able to displace [^125I] IL-1beta from type I IL-1Rs on the EL46.1 cells (FIG. 19). Additionally a competitive binding assay was performed in which the IL-1ra peptides were added to the EL4 cells at the same time [^125I] was added. No displacement of [^125I] IL-1 beta was observed from its receptors in the presence of these IL-1ra peptides.

collagenase (MMP-1) [3] = experiment: IL-1β-induced collagenase (MMP-1) production by dermal fibroblasts, ELISA; format: cell-based, human; settings: same wells as collagenase assay
type I IL-1R [4] = target: T1, type I IL-1R; set-up: host or cells: EL4.IL-2 murine thymoma cells; settings: murine thymoma cell line EL4.IL-2; read-out: affinity (Kp) for type I IL-1R; cited from earlier work
[5] = listed as 60-90 (SEQ ID NO: 15)

Substance: IHGGKMCLSCVKSGDETRLQLEAVNITDLSE (IL-1ra peptides representing the mature form of human sIL-1ra) [IL-1ra 60-90, synthetic peptide, residues 60-90 of IL-1ra]
- inhibition of IL-1-stimulated proliferation of D10.G4.1 T cells (D10.G4.1 T cells): did not block
- inhibition of IL-1-induced collagenase production by fibroblasts (collagenase (MMP-1) [1]): failed to block
- inhibition of IL-1β-induced ICAM-1 expression on fibroblasts (ICAM-1; [5]): blocked
- inhibition of IL-1β-induced ICAM-1 expression on fibroblasts (ICAM-1; listed as IL-1ra peptide 60-90): inhibited
- inhibition of IL-1β-induced ICAM-1 expression on fibroblasts (ICAM-1; listed as SEQ ID NO: 15): inhibited the ICAM-1 expression on cultured fibroblasts in a dose dependent manner
- inhibition of IL-1-induced fibroblast PGE2 synthesis (PGE2; [5]): blocked
- inhibition of IL-1-induced fibroblast PGE2 synthesis (PGE2; listed as IL-1ra peptide 60-90): inhibited
- inhibition of IL-1-induced fibroblast PGE2 synthesis (PGE2; listed as SEQ ID NO: 15): inhibited
- inhibition of IL-1β-induced TIMP-1 production by fibroblasts (TIMP-1): failed to block

Substance: RPSGRKSSKMQAFRIWDVNQKTFYLRNNQLVAGYL (IL-1ra peptides representing the mature form of human sIL-1ra) [IL-1ra 1-35, synthetic peptide, residues 1-35 of mature human sIL-1ra]
- concentrations at which IL-1 induced collagenase synthesis was inhibited (collagenase (MMP-1) [1]; dermal fibroblasts, FIG. 21): ≥ 10^−10 M
- inhibition of IL-1-induced collagenase production by fibroblasts (collagenase (MMP-1) [1]; listed as 1-35 (SEQ ID NO: 13)): blocked
- inhibition of IL-1-induced collagenase production by fibroblasts (collagenase (MMP-1) [1]; listed as IL-1ra peptide 1-35): inhibited
- competition with / displacement of [125I] IL-1beta from type I IL-1Rs (type I IL-1R [2]; EL4 6.1 cells): did not competitively inhibit the binding
- fibroblast growth (counting trypsinized cells in hemocytometer) (collagenase (MMP-1) [3]): unchanged

Substance: hrsIL-1ra: soluble human recombinant interleukin 1ra, used as control [reference compound]
- displacement of [125I] IL-1 beta from EL4 cells (type I IL-1R [2]; 100× excess): greater than 90%
- pKd (type I IL-1R [4]): 9.82
- level to which IL-1β-induced ICAM-1 expression was inhibited (ICAM-1; 100 ng/mL): 6 O.D. units/mg of cellular protein
- level to which IL-1-induced PGE2 production was inhibited (PGE2; 100 ng/ml): 150 pg/mL
